Earlier results in patent US7217431B2, “Controlled agglomeration” (LifeCycle Pharma A/S, priority 2001, dated 2007).
Where two headings read alike, the source gives them in different places.

| SMILES | Bioavailability (Table 2, in words) | Bioavailability (in vivo) |
| --- | --- | --- |
| COc1ccc(CCN2CCC(Nc3nc4ccccc4n3Cc3ccc(F)cc3)CC2)cc1 [Astemizole] | Low–moderate | – |
| CC(=O)OC[C@H]1O[C@@H]([S-])[C@H](OC(C)=O)[C@@H](OC(C)=O)[C@@H]1OC(C)=O.CCP(CC)CC.[Au+] [Auranofin] | – | Low (15–25%) |
| OCCN1CCN(CCCN2c3ccccc3Sc3ccc(Cl)cc32)CC1 [Perphenazine] | Low | – |

More lines, main results first:

| Bioavailability (Table 2, in words) | SMILES | Bioavailability (in vivo) |
| --- | --- | --- |
| Low | C#C[C@]1(O)CC[C@H]2[C@@H]3CCC4=Cc5oncc5C[C@]4(C)[C@H]3CC[C@@]21C [Danazol] | – |
| Low | CC1CC(OC(=O)C(O)c2ccccc2)CC(C)(C)C1 (centres unmarked) [Cyclandelate] | – |
